{
  "source": "patent US20070202577A1",
  "about": "“Method For The Production Of Hyperbranched Polysaccharide Fractions” (priority 2004, published 2007)",
  "target": "T1, α-amylase from porcine pancreas (Sus scrofa, UniProt P00690)",
  "T1 sequence (P00690 16-511)": "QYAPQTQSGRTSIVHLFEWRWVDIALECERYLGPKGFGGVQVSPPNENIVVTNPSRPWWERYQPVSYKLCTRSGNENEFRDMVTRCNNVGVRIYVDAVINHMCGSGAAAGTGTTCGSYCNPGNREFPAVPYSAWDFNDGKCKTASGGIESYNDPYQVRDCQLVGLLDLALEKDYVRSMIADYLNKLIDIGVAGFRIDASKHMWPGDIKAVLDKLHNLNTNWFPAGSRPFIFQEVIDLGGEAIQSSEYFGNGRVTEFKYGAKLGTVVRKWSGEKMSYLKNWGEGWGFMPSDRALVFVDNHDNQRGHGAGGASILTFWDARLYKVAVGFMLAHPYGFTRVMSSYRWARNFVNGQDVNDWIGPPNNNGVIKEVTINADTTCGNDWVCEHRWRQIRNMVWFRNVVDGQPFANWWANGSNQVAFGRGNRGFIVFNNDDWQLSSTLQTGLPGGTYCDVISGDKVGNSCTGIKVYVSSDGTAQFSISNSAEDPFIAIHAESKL",
  "protocol": "The solution was heated to 37.0° C., and 0.5 I.U./ml α-amylase from porcine pancreas (from Roche; AS, Art. No. 102 814) was added. Samples were taken after 1 and 3 hours, the enzyme was inactivated by heat, and the molecular weight of the remaining high molecular weight fraction was determined by HPGPC.",
  "data": [
    {"substance": "hydroxyethyl starch [Voluven]", "values": [
      {"measurement": "rate of degradation with α-amylase, compared with the hyperbranched amylopectin fraction from example 7", "value": "comparable"},
      {"measurement": "initial weight average molecular weight", "setting": "pH 7.2", "value": "140 200 daltons"},
      {"measurement": "weight average molecular weight after hydrolysis for 1 hour", "setting": "pH 7.2", "value": "54 700 daltons"},
      {"measurement": "weight average molecular weight after hydrolysis for 3 hours", "setting": "pH 7.2", "value": "33 700 daltons"}
    ]}
  ]
}
